Here are results for nine compounds from ChEMBL document CHEMBL1133387, “Secondary amines as new pharmacophores for macrofilaricidal drug design” (2000).

Structures are written as SMILES.

Common to all, as to format: functional
Test [1] relates to Acanthocheilonema viteae. As to the kind of experiment: Compound was tested in vivo for anti-filarial activity against A. viteae through oral route of administration at 200 mg/kg for 5 days and microfilaricidal response was observed.
In test [2] the test system is Acanthocheilonema viteae. Nature of the test: Compound was tested in vivo for anti-filarial activity against A. viteae through oral route of administration at 200 mg/kg for 5 days and sterilization of female worms was observed.
The subject of test [3] is Acanthocheilonema viteae. As to the kind of experiment: Compound was tested in vivo for anti-filarial activity against A. viteae through oral route of administration at 200 mg/kg for 5 days and macrofilaricidal response was observed.
The subject of test [4] is Acanthocheilonema viteae. Nature of the test: Compound was tested in vivo for anti-filarial activity against A. viteae through oral route of administration at 200 mg/kg for 5 days and sterilization of inactive worms was observed.

On to `CCCCCCCNc1ccccc1`, for which the Reduction in the test on Acanthocheilonema viteae [1] was determined as 69%; in the test on Acanthocheilonema viteae [3], 0%. Moreover, the Activity in the test with Acanthocheilonema viteae [2] stood at 0%.
In the test with Acanthocheilonema viteae [4], `CCCCNc1ccc(F)c(Cl)c1` came in with an Activity of 0%. Further, the Reduction in the test on Acanthocheilonema viteae [1] is listed as 32%; with Acanthocheilonema viteae [3] it was 0%.
As for `CCCCCCNc1ccc(F)cc1`, the Reduction in the test with Acanthocheilonema viteae [1] is on record as 0%; in the test on Acanthocheilonema viteae [3], 50%. In the test on Acanthocheilonema viteae [2], this compound returned an Activity of 0%.
As to `CCCCN(CCCC)c1ccc(F)cc1`, in the test with Acanthocheilonema viteae [4], the Activity is on record as 50%. Also, the Reduction amounted to 81% in the test with Acanthocheilonema viteae [1] and 0% in the test with Acanthocheilonema viteae [3].
On the same counts, the results for `CCCCN(CCCC)c1ccccc1` are 55%, 77% and 0%.
Regarding `CCCCCCNc1ccc(F)c(Cl)c1`, the Reduction in the test with Acanthocheilonema viteae [1] turned out to be 50%; with Acanthocheilonema viteae [3], 88%. Further, the Activity in the test on Acanthocheilonema viteae [2] is listed as 0%.
Taken in the same sequence, the figures for `CCCCCCNc1ccccc1` were 58%, 50% and 0%.
Taken in the same sequence, the figures for `CCCCN(CCCC)C1CCCCC1` were 93%, 0% and 50%.
Turning to `CCCCCCNC1CCCCC1`, the Reduction is 0% in the test with Acanthocheilonema viteae [1] and 100% in the test with Acanthocheilonema viteae [3]. Also, the Activity in the test on Acanthocheilonema viteae [2] was found to be 0%.
